According to PubChem BioAssay (NCI):
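Briefly, cells in 96-well plates were exposed to five compound concentrations for 48 h, and endpoints were estimated by linear interpolation. The concentration for 50% growth inhibition is given as GI50. TGI: total growth inhibition.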

Key:
Assay in all cases: DTP human tumour cell line panel, 48 h
SW-620 colon = test system: SW-620 colon
A498 renal = test system: A498 renal
SK-MEL-5 melanoma = test system: SK-MEL-5 melanoma
MOLT-4 leukemia = test system: MOLT-4 leukemia
SF-268 CNS = test system: SF-268 CNS
CAKI-1 renal = test system: CAKI-1 renal
SR leukemia = test system: SR leukemia
HT29 colon = test system: HT29 colon
M14 melanoma = test system: M14 melanoma
HL-60(TB) leukemia = test system: HL-60(TB) leukemia
NCI-H226 lung = test system: NCI-H226 lung
NCI-H460 lung = test system: NCI-H460 lung
COLO 205 colon = test system: COLO 205 colon
MDA-MB-231 breast = test system: MDA-MB-231 breast
SK-MEL-28 melanoma = test system: SK-MEL-28 melanoma
NCI/ADR-RES ovarian = test system: NCI/ADR-RES ovarian
OVCAR-4 ovarian = test system: OVCAR-4 ovarian
HCT-116 colon = test system: HCT-116 colon
HCT-15 colon = test system: HCT-15 colon
SF-539 CNS = test system: SF-539 CNS
LOX IMVI melanoma = test system: LOX IMVI melanoma
CCRF-CEM leukemia = test system: CCRF-CEM leukemia
SNB-19 CNS = test system: SNB-19 CNS
SNB-75 CNS = test system: SNB-75 CNS
HOP-92 NSCLC = test system: HOP-92 NSCLC
DU-145 prostate = test system: DU-145 prostate
NCI-H522 lung = test system: NCI-H522 lung
SK-MEL-2 melanoma = test system: SK-MEL-2 melanoma
UACC-257 melanoma = test system: UACC-257 melanoma
SN12C renal = test system: SN12C renal
OVCAR-3 ovarian = test system: OVCAR-3 ovarian
OVCAR-8 ovarian = test system: OVCAR-8 ovarian
PC-3 prostate = test system: PC-3 prostate
EKVX NSCLC = test system: EKVX NSCLC
T-47D breast = test system: T-47D breast
RXF 393 renal = test system: RXF 393 renal
SF-295 CNS = test system: SF-295 CNS
NCI-H23 lung = test system: NCI-H23 lung
HS 578T breast = test system: HS 578T breast
OVCAR-5 ovarian = test system: OVCAR-5 ovarian
UACC-62 melanoma = test system: UACC-62 melanoma
TK-10 renal = test system: TK-10 renal
IGROV1 ovarian = test system: IGROV1 ovarian
ACHN renal = test system: ACHN renal
HCC-2998 colon = test system: HCC-2998 colon
MDA-MB-435 = test system: MDA-MB-435
SK-OV-3 ovarian = test system: SK-OV-3 ovarian
RPMI-8226 leukemia = test system: RPMI-8226 leukemia
A549 NSCLC = test system: A549 NSCLC
786-0 renal = test system: 786-0 renal
UO-31 renal = test system: UO-31 renal
HOP-62 NSCLC = test system: HOP-62 NSCLC
MALME-3M melanoma = test system: MALME-3M melanoma
MCF7 breast = test system: MCF7 breast
KM12 colon = test system: KM12 colon
BT-549 breast = test system: BT-549 breast
U251 CNS = test system: U251 CNS

`COC(=O)[C@@H]1CCCN1C(=O)[C@@H]1CCCN1C(=O)[C@H](Cc1ccccc1)NC(=S)Nc1cc(C(F)(F)F)cc(C(F)(F)F)c1` showed a GI50 (SW-620 colon) of 5.11 µM, a TGI (SW-620 colon) of over 100 µM and a GI50 (A498 renal) of 2.55 µM. It also gave a TGI (A498 renal) of 22.9 µM, a GI50 (SK-MEL-5 melanoma) of 2.6 µM and a TGI (SK-MEL-5 melanoma) of 9.18 µM. For the same molecule, the GI50 (MOLT-4 leukemia) was 2.88 µM, the TGI (MOLT-4 leukemia) was 7.88 µM and the GI50 (SF-268 CNS) was 4.83 µM. The TGI (SF-268 CNS) was over 100 µM, the GI50 (CAKI-1 renal) was 3.55 µM and the TGI (CAKI-1 renal) was over 100 µM. The GI50 (SR leukemia) was 3.69 µM, the TGI (SR leukemia) was 24.9 µM and the GI50 (HT29 colon) was 2.76 µM. For the same molecule, the TGI (HT29 colon) was 6.51 µM, the GI50 (M14 melanoma) was 3.7 µM and the TGI (M14 melanoma) was over 100 µM. It also gave a GI50 (HL-60(TB) leukemia) of 2.53 µM, a TGI (HL-60(TB) leukemia) of 5.49 µM and a GI50 (NCI-H226 lung) of 3.39 µM. For the same molecule, the TGI (NCI-H226 lung) was over 100 µM, the GI50 (NCI-H460 lung) was 3.4 µM and the TGI (NCI-H460 lung) was over 100 µM. For the same molecule, the GI50 (COLO 205 colon) was 2.43 µM, the TGI (COLO 205 colon) was 5.85 µM and the GI50 (MDA-MB-231 breast) was 2.04 µM. It also gave a TGI (MDA-MB-231 breast) of 5.6 µM, a GI50 (SK-MEL-28 melanoma) of 3.48 µM and a TGI (SK-MEL-28 melanoma) of over 100 µM. It also gave a GI50 (NCI/ADR-RES ovarian) of 2.99 µM, a TGI (NCI/ADR-RES ovarian) of over 100 µM and a GI50 (OVCAR-4 ovarian) of 4.29 µM. For the same molecule, the TGI (OVCAR-4 ovarian) was over 100 µM, the GI50 (HCT-116 colon) was 3.01 µM and the TGI (HCT-116 colon) was 15.2 µM. It also gave a GI50 (HCT-15 colon) of 3.8 µM, a TGI (HCT-15 colon) of over 100 µM and a GI50 (SF-539 CNS) of 4.51 µM. It also gave a TGI (SF-539 CNS) of over 100 µM, a GI50 (LOX IMVI melanoma) of 2.6 µM and a TGI (LOX IMVI melanoma) of 9.89 µM. For the same molecule, the GI50 (CCRF-CEM leukemia) was 3.54 µM, the TGI (CCRF-CEM leukemia) was over 100 µM and the GI50 (SNB-19 CNS) was 3.77 µM. For the same molecule, the TGI (SNB-19 CNS) was over 100 µM, the GI50 (SNB-75 CNS) was 2.06 µM and the TGI (SNB-75 CNS) was 61 µM. The GI50 (HOP-92 NSCLC) was 1.77 µM, the TGI (HOP-92 NSCLC) was 5.65 µM and the GI50 (DU-145 prostate) was 5.06 µM. For the same molecule, the TGI (DU-145 prostate) was over 100 µM, the GI50 (NCI-H522 lung) was 3.17 µM and the TGI (NCI-H522 lung) was 9.6 µM. It also gave a GI50 (SK-MEL-2 melanoma) of 2.93 µM, a TGI (SK-MEL-2 melanoma) of 7.39 µM and a GI50 (UACC-257 melanoma) of 2.92 µM. For the same molecule, the TGI (UACC-257 melanoma) was 11.4 µM, the GI50 (SN12C renal) was 3.47 µM and the TGI (SN12C renal) was over 100 µM. It also gave a GI50 (OVCAR-3 ovarian) of 3.43 µM, a TGI (OVCAR-3 ovarian) of 9.98 µM and a GI50 (OVCAR-8 ovarian) of 4.31 µM. For the same molecule, the TGI (OVCAR-8 ovarian) was over 100 µM, the GI50 (PC-3 prostate) was 2.72 µM and the TGI (PC-3 prostate) was 26.2 µM. For the same molecule, the GI50 (EKVX NSCLC) was 3.07 µM, the TGI (EKVX NSCLC) was over 100 µM and the GI50 (T-47D breast) was 4.27 µM. The TGI (T-47D breast) was over 100 µM, the GI50 (RXF 393 renal) was 2.19 µM and the TGI (RXF 393 renal) was 7.41 µM. The GI50 (SF-295 CNS) was 2.16 µM, the TGI (SF-295 CNS) was 4.82 µM and the GI50 (NCI-H23 lung) was 3.16 µM. For the same molecule, the TGI (NCI-H23 lung) was over 100 µM, the GI50 (HS 578T breast) was 4.49 µM and the TGI (HS 578T breast) was over 100 µM. It also gave a GI50 (OVCAR-5 ovarian) of 3.8 µM, a TGI (OVCAR-5 ovarian) of 42.4 µM and a GI50 (UACC-62 melanoma) of 3.3 µM. The TGI (UACC-62 melanoma) was 63.5 µM, the GI50 (TK-10 renal) was 5.41 µM and the TGI (TK-10 renal) was over 100 µM. The GI50 (IGROV1 ovarian) was 7.24 µM, the TGI (IGROV1 ovarian) was over 100 µM and the GI50 (ACHN renal) was 3.98 µM. It also gave a TGI (ACHN renal) of over 100 µM, a GI50 (HCC-2998 colon) of 2.65 µM and a TGI (HCC-2998 colon) of 7.06 µM. It also gave a GI50 (MDA-MB-435) of 3.29 µM, a TGI (MDA-MB-435) of over 100 µM and a GI50 (SK-OV-3 ovarian) of 9.26 µM. It also gave a TGI (SK-OV-3 ovarian) of over 100 µM, a GI50 (RPMI-8226 leukemia) of 3.36 µM and a TGI (RPMI-8226 leukemia) of 41 µM. It also gave a GI50 (A549 NSCLC) of 3.82 µM, a TGI (A549 NSCLC) of over 100 µM and a GI50 (786-0 renal) of 4.47 µM. It also gave a TGI (786-0 renal) of over 100 µM, a GI50 (UO-31 renal) of 3.3 µM and a TGI (UO-31 renal) of over 100 µM. The GI50 (HOP-62 NSCLC) was 4.56 µM, the TGI (HOP-62 NSCLC) was 72.5 µM and the GI50 (MALME-3M melanoma) was 5.53 µM. It also gave a TGI (MALME-3M melanoma) of over 100 µM, a GI50 (MCF7 breast) of 3.08 µM and a TGI (MCF7 breast) of over 100 µM. It also gave a GI50 (KM12 colon) of 3.93 µM, a TGI (KM12 colon) of over 100 µM and a GI50 (BT-549 breast) of 4.39 µM. It also gave a TGI (BT-549 breast) of 71.5 µM, a GI50 (U251 CNS) of 2.79 µM and a TGI (U251 CNS) of 13.2 µM.
